Assays:
[1] = system: C. Albicans MY 1028; assay: Minimum fungicidal concentration (MFC), microbroth dilution assay in YNBD; assay type: cell-based, Candida albicans; conditions: 35° C. 24 hours, then SDA 24 hours at 28° C.
Procedure: (§1) The compounds of the present invention are active against many fungi and particularly against Candida species. The antifungal properties may be illustrated with the minimum fungicidal concentration (MFC) determination against certain Candida organisms in a microbroth dilution assay carried out in a Yeast Nitrogen Base (Difco) medium with 1% dextrose (YNBD).
(§2) In carrying out the assay, Compound A-Ia was solubilized in 10 percent dimethyl sulfoxide (DMSO) and diluted to 2560 μg/ml. The compound was then diluted to 256 μg/ml in YNBD.
(§3) The yeast cultures, maintained on Sabouraud dextrose agar were transferred to YN broth (Difco) and incubated overnight at 35° C. with shaking (250 rpm). After incubation, each culture was diluted in sterile water to yield a final concentration of 1-5×10^6 colony forming units (CFU)/ml.
(§4) 96-well microplates were inoculated using a MIC-2000 (Dynatech) which delivers […] per well yielding a final inoculum per well of 1.5-7.5×10^3 cells. The microplates were incubated at 35° C. for 24 hours. The minimum inhibitory concentrations (MICs) were recorded as the lowest concentrations of drug showing no visible growth.
(§5) After recording the MIC, the plates were shaken to resuspend the cells. Thereafter, 1.5 μl samples from the wells in the 96-well microplate were transferred to a single well tray containing Sabouraud dextrose agar. The inoculated trays were incubated 24 hours at 28° C. and then read for minimum fungicidal concentration (MFC). MFC is defined as the lowest concentration of drug showing no growth or less than 4 colonies per spot.

[2] = system: C. Albicans MY 1055; assay: as above; assay type: cell-based, Candida albicans; conditions: 35° C. 24 hours, then SDA 24 hours at 28° C.
Procedure: as §1, §2, §3, §4, §5

[3] = system: C. Albicans MY 1730; assay: as above; assay type: cell-based, Candida albicans; conditions: 35° C. 24 hours, then SDA 24 hours at 28° C.
Procedure: as §1, §2, §3, §4, §5

[4] = system: C. tropicalis MY 1012; assay: as above; assay type: cell-based, Candida tropicalis; conditions: 35° C. 24 hours, then SDA 24 hours at 28° C.
Procedure: as §1, §2, §3, §4
(§6) After recording the MIC, the plates were shaken to resuspend the cells. […] The inoculated trays were incubated 24 hours at 28° C. and then read for minimum fungicidal concentration (MFC). […]

[5] = system: C. pseudotropicalis MY 1100; assay: as above; assay type: cell-based, Candida pseudotropicalis; conditions: 35° C. 24 hours, then SDA 24 hours at 28° C.
Procedure: as §1, §2, §3, §4, §6

[6] = system: C. parapsilosis MY 1010; assay: as above; assay type: cell-based, Candida parapsilosis; conditions: 35° C. 24 hours, then SDA 24 hours at 28° C.
Procedure: as §1, §2, §3, §4, §6

[7] = system: Candida albicans MY 1055; assay: In vivo effectiveness in mice infected I.V. with Candida albicans, kidney CFU; design: species or system female DBA/2 mice; conditions: 0.4 mg/kg I.P. twice daily for four consecutive days; kidneys of DBA/2 mice after seven days
Procedure: Growth from an overnight SDA culture of Candida albicans MY 1055 was suspended in sterile saline and the cell concentration determined by hemacytometer count and the cell suspension adjusted to 3.75 x 10^5 cells/mi. Then 0.2 milliliter of this suspension was administered I.V. in the tail vein of mice so that the final inoculum was 7.5×10^4 cells/mouse.
The assay then was carried out by administering aqueous solutions of Compound A-Ia at various concentrations intraperitoneally (I.P.), twice daily (b.i.d.) for four consecutive days to 18 to 20 gram female DBA/2 mice, which previously had been infected with Candida albicans in the manner described above. Distilled water was administered I.P. to C. albicans challenged mice as controls. After seven days, the mice were sacrificed by carbon dioxide gas, paired kidneys were removed aseptically and placed in sterile polyethylene bags containing 5 milliters of sterile saline. The kidneys were homogenized in the bags, serially diluted in sterile saline and aliquots spread on the surface of SDA plates. The plates were incubated at 35° C. for 48 hours and yeast colonies were enumerated for determination of colony forming units (CFU) per gram of kidneys. Compound A-Ia gave 99 percent reduction of recoverable Candida CFUs at 0.4 mg/kg I.P. twice daily for four consecutive days.

[8] = system: Pneumocystis carinii; assay: Pneumocystis carinii pneumonia in immunosuppressed rats, lung cysts; assay type: in vivo, Sprague-Dawley rats; conditions: sc twice daily for four days, compared with untreated or solvent controls
Procedure: The compounds of the present invention may also be useful for inhibiting or alleviating Pneumocystis carinii infections in immune compromised patients. […] Before drug treatment, two rats are sacrificed to confirm the presence of Pneumocystis carinii pneumonia (PCP). Five rats (weighing approximately 150 grams) are injected twice daily for four days subcutaneously (sc) with Compound A-Ia in 0.25 ml of vehicle (distilled water). A vehicle control is also carried out. All animals continue to receive dexasone in the drinking water and low protein diet during the treatment period. At the completion of the treatment, all animals are sacrificed, the lungs are removed and processed, and the extent of disease determined by microscopic examination of stained slides for the presence of cysts.

## 1-[4-hydroxy-5-aminoethylthio-N^2 -(10,12-dimethyl-1-oxotetradecyl)ornithine]-5-(3-hydroxyglutamine)-6-(3-hydroxyproline)echinocandin B trifluoroacetate [Compound A-Ia]
[1]
  MFC: 0.5 µg/mL
[2]
  MFC: 0.5 µg/mL
[3]
  MFC: 0.125 µg/mL
[4]
  MFC: 0.125 µg/mL
[5]
  MFC: 0.25 µg/mL
[6]
  MFC: 0.25 µg/mL
[7]
  reduction of recoverable Candida CFUs: 99%
[8]
  extent of disease: cysts in stained slides from the lungs: prevention of or reduction of cysts
